Nine compounds from EP4656642A1, “ESTROGEN RECEPTOR PROTEOLYSIS TARGETING CHIMERA COMPOUND AND USE THEREOF” (GAN & LEE PHARM CO., LTD, priority 2023, dated 2024) can be followed below.

What all share (format): cell-based
The subject of one test is VCaP cells. Put plainly: Inhibition of proliferation of VCaP cells (WST-8, 168 hours). The settings on record: VCaP cells, 168 hours, WST-8. As to the method: Test Example 7 Inhibitory activity of the compounds disclosed in the present disclosure on the proliferation of VCaP cells
VCaP cells (ATCC, CRL-2876) were cultured in DMEM (Gibco, 11995-065) complete medium containing 10% fetal bovine serum (Hyclone, SH30406.05). On the first day of the experiment, VCaP cells were inoculated in 96-well plates at a density of 15,000 cells/well using DMEM medium containing 10% fetal bovine serum, with 100µL of cell suspension per well, and placed in a cell culture incubator with 5% CO2 at 37°C overnight. […] The compound concentrations were prepared in complete DMEM medium and serially diluted 5-fold starting from 10 µM, resulting in a total of nine concentration points. Wells receiving 100 µL of DMEM medium containing 10% FBS only were used as blank controls. The plates were incubated at 37°C in a 5% CO2 incubator for 168 hours.
(In general: Tetrazolium dyes change colour on reduction, which living cells bring about.)

The next test has as its system LNCAP FGC cells. Put plainly: Inhibition of LNCAP cell proliferation (WST-8, 96 hours). The settings on record: LNCAP FGC cells, 96 hours, WST-8. On the procedure: Test Example 8 Inhibitory activity of the compounds disclosed in the present disclosure on LNCAP cell proliferation
LNCAP FGC cells (ATCC, CLR-1740) were cultured in RPMI 1640 (ATCC, 30-2001) complete medium containing 10% fetal bovine serum (Hyclone, SH30406.05). On the first day of the experiment, LNCaP FGC cells were inoculated in 96-well plates at a density of 5,000 cells/well using RPMI 1640 medium containing 10% fetal bovine serum, with 100µL of cell suspension per well, and placed in a cell culture incubator with 5% CO2 at 37°C overnight. […] The compound concentrations were prepared in complete […] medium and serially diluted 5-fold starting from 10 µM, resulting in a total of nine concentration points. Wells receiving 100 µL of RPMI 1640 medium containing 10% FBS only were used as controls. The plates were incubated at 37°C in a 5% CO2 incubator for 96 hours.

A further test has as its target T1, AR protein (Homo sapiens, UniProt P10275).
T1 construct: host or cells: VCaP
T1 sequence (P10275 1-920): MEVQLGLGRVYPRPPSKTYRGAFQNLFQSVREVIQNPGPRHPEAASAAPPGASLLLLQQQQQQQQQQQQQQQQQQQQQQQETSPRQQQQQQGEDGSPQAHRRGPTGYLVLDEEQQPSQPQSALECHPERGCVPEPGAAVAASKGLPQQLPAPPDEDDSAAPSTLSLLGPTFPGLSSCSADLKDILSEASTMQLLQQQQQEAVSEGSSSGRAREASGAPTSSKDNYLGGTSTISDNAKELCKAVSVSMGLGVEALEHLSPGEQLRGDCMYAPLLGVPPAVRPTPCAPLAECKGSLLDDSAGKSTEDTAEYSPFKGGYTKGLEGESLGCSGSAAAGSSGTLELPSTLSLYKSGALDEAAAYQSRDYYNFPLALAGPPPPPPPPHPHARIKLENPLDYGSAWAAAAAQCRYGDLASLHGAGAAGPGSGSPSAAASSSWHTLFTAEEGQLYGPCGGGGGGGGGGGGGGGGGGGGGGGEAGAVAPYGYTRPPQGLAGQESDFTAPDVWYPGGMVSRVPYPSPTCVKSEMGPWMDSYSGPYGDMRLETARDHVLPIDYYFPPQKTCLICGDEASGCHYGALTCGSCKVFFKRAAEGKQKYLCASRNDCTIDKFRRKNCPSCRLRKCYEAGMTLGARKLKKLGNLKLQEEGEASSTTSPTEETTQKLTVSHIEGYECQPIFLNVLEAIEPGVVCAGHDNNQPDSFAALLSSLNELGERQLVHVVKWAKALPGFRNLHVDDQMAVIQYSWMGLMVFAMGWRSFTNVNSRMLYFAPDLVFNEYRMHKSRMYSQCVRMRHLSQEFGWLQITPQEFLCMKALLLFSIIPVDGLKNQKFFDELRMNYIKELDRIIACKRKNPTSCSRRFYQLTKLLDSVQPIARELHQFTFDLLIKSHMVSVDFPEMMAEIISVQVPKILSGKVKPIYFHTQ
The settings on record: 8 h. As to the method: Test Example 9 Degradation activity of the compounds disclosed in the present disclosure against AR protein in VCAP cells (cell source: ATCC)
AR-positive human prostate cancer cells, VCaP, were inoculated in six-well microplates (Thermo Catalog No. 140675) in DMEM (GiBco Catalog No. 11995-065) containing 10% FBS (Hyclone Catalog No. SH30406.05) at a density of 3 × 10^5 cells/well. […] After 8 h, the culture medium was discarded, and cells were washed with PBS, then RIPA lysis buffer containing 1% Protease Inhibitor Cocktail was added, and the total protein extract was obtained after lysis and centrifugation, and the protein concentration in the extract was detected by BCA method. Protein electrophoresis was carried out by SDS-PAGE, after which the protein was transferred to PVDF (Millipore Sigma catalog number PSRP010R5) membrane by 100V constant-voltage electrotransfer for 60 min, and the PVDF membrane was placed in 1×TBST solution with 5% milk and blocked at room temperature for 1 h. The primary antibody solution (Anti-Androgen receptor, Cell Signaling Technology Catalog No. 5153S; 1: 2000 dilution) was prepared and incubated overnight at 4°C. The primary antibody solution was discarded, and the PVDF membrane was washed three times with 1× TBST for 5 min each. The secondary antibody solution (Thermo catalog number SA5-35571; 1:7500 dilution) was prepared, and the secondary antibody dilution was incubated at room temperature for 1h. The secondary antibody solution was discarded, and the PVDF membrane was washed three times with 1×TBST for 5 min each. Western membrane imaging was performed using a dual-color infrared laser imaging system (Licor catalog number Odyssey CLX). Bands were analyzed in grayscale using the software Image Studio. For each sample, GAPDH protein bands were detected as internal reference. The degradation rates of the AR protein for the compounds and positive control sample were calculated based on the grayscale of the protein bands.

Molecules are shown by their SMILES.

As usually defined, the IC50 is the concentration that inhibits the measured activity by half. A higher IC50 goes with weaker potency. As to `C[C@H]1CC2(CCN(c3ccc(N4CCC(CN5CCC6(CC5)COc5c6ccc6c5C(=O)N(C5CCC(=O)NC5=O)C6)CC4)cc3)CC2)CN1c1ccc(C#N)c(Cl)c1` (stereo partly drawn) [2-103], the IC50 in the test with VCaP cells stood at 36 nM. In the test with LNCAP FGC cells, this compound registered an IC50 of 850 nM. On AR protein, the “Degradation rates of the AR protein in VCAP cells, 0.5 nM” value (from here on “Degradation rates … 0.5 nM”) is 0% and the “Degradation rates of the AR protein in VCAP cells, 5 nM” value came to 47%.
`COc1cc(O[C@H]2CC[C@H](NC(=O)c3ccc(N4CCC(C)(CN5CCC6(CC5)COc5c6ccc6c5C(=O)N(C5CCC(=O)NC5=O)C6)CC4)nn3)CC2)ccc1C#N` (relative stereo) [2-261] displayed an IC50 with VCaP cells of 12 nM. In the test on LNCAP FGC cells, this compound registered an IC50 of 49100 nM. Moreover, at AR protein, the “Degradation rates … 0.5 nM” value was 44% and the “Degradation rates of the AR protein in VCAP cells, 5 nM” value is 82%.
The like results for `CC1(CN2CCC3(CC2)COc2c3ccc3c2C(=O)N(C2CCC(=O)NC2=O)C3)CCN(c2ccc(C(=O)N[C@H]3CC[C@H](Oc4ccc(C#N)c(Cl)c4)CC3)nn2)CC1` (relative stereo) [2-262] were, in that order, 11 nM, 21300 nM, 34% and 75%.
For `COc1cc(O[C@H]2C(C)(C)[C@H](NC(=O)c3ccc(N4CCC(C)(CN5CCC6(CC5)COc5c6ccc6c5C(=O)N(C5CCC(=O)NC5=O)C6)CC4)cc3)C2(C)C)ccc1C#N` (relative stereo) [2-292], the IC50 with VCaP cells amounted to 3 nM. For the same compound, in the test on LNCAP FGC cells, the IC50 worked out at 68500 nM. Further, at AR protein, the “Degradation rates … 0.5 nM” value is 30% and the “Degradation rates of the AR protein in VCAP cells, 5 nM” value was determined as 72%.
In the test on VCaP cells, `N#Cc1ccc(O[C@H]2CC[C@H](NC(=O)c3ccc(N4CCC(F)(CN5CCC6(CC5)COc5c6ccc6c5C(=O)N(C5CCC(=O)NC5=O)C6)CC4)nn3)CC2)cc1Cl` (relative stereo) [2-315] yielded an IC50 of 7 nM. In the test with LNCAP FGC cells, this compound showed a half-inhibitory concentration (IC50) of 2450 nM. On AR protein, the “Degradation rates … 0.5 nM” value is listed as 31% and the “Degradation rates of the AR protein in VCAP cells, 5 nM” value came out at 71%.
The matching figures for `COc1cc(O[C@H]2CC[C@H](NC(=O)c3ccc(N4CCC(F)(CN5CCC6(CC5)COc5c6ccc6c5C(=O)N(C5CCC(=O)NC5=O)C6)CC4)nn3)CC2)ccc1C#N` (relative stereo) [2-316]: 2 nM, 68200 nM, 35% and 61%.
`COc1cc(O[C@H]2C(C)(C)[C@H](NC(=O)c3ccc(N4CCC(CN5CCC6(CC5)COc5c6ccc6c5C(=O)N(C5CCC(=O)NC5=O)C6)CC4)cc3)C2(C)C)ccc1C#N` (relative stereo) [2-318] gave an IC50 in the test with VCaP cells of 1 nM. Moreover, the IC50 in the test with LNCAP FGC cells is 9850 nM. Further, on AR protein, the “Degradation rates … 0.5 nM” value is 55% and the “Degradation rates of the AR protein in VCAP cells, 5 nM” value was 78%.
Compound `COC1(CN2CCC3(CC2)COc2c3ccc3c2C(=O)N(C2CCC(=O)NC2=O)C3)CCN(c2ccc(C(=O)N[C@H]3CC[C@H](Oc4ccc(C#N)c(Cl)c4)CC3)nn2)CC1` (relative stereo) [2-263] gave an IC50 in the test with VCaP cells of 11 nM. Moreover, the IC50 in the test with LNCAP FGC cells stood at 6300 nM. For the same compound, at AR protein, the “Degradation rates … 0.5 nM” value was 65% and the “Degradation rates of the AR protein in VCAP cells, 5 nM” value is given as 88%.
In the case of `COc1cc(O[C@H]2C(C)(C)[C@H](NC(=O)c3ccc(N4CCC(CN5CCC6(CC5)COc5c6ccc6c5C(=O)N(C5CCC(=O)NC5=O)C6)(OC)CC4)cc3)C2(C)C)ccc1C#N` (relative stereo) [2-293], half-maximal inhibition with VCaP cells (IC50) required 5 nM. It took 88100 nM to reach half-maximal inhibition in the test with LNCAP FGC cells (IC50). At AR protein, the “Degradation rates … 0.5 nM” value turned out to be 72% and the “Degradation rates of the AR protein in VCAP cells, 5 nM” value is recorded as 89%.
